Assay results from the NIST ThermoML archive (doi:10.1016/j.fluid.2010.05.017).
Numbers after ± are expanded uncertainties.

Legend:
[1] = xn = mol fraction of the nth substance listed; conditions: 298.15 K, 101 kPa, Liquid, Vibrating tube method
[2] = 298.15 K; 101.33 kPa; Liquid; Vibrating tube method
[3] = refractive index (Na D-line) (dimensionless); conditions: 298.15 K; 101.33 kPa; Liquid; Standard Abbe refractometry

## CCCCCC [hexane] + Cc1ccc(C)cc1
[1]; x1 = 1
  mass density: 655.19 ± 0.25 kg/m3

## CCCCCC [hexane] + Cc1cccc(C)c1
[1]; x1 = 1
  mass density: 655.19 ± 0.25 kg/m3

## Cc1ccccc1C [1,2-dimethylbenzene] + CCCCCC
[1]; x2 = 0
  mass density: 875.37 ± 0.24 kg/m3
[1]; x2 = 0.045
  mass density: 865.52 ± 2.7 kg/m3
[1]; x2 = 0.097
  mass density: 853.5 ± 2.7 kg/m3
[1]; x2 = 0.189
  mass density: 832.71 ± 2.7 kg/m3
[1]; x2 = 0.295
  mass density: 809.05 ± 2.7 kg/m3
[1]; x2 = 0.397
  mass density: 786.32 ± 2.7 kg/m3
[1]; x2 = 0.495
  mass density: 764.54 ± 2.7 kg/m3
[1]; x2 = 0.597
  mass density: 742.07 ± 2.6 kg/m3
[1]; x2 = 0.697
  mass density: 720.32 ± 2.6 kg/m3
[1]; x2 = 0.797
  mass density: 698.71 ± 2.6 kg/m3
[1]; x2 = 0.901
  mass density: 676.45 ± 2.6 kg/m3
[1]; x2 = 0.95
  mass density: 665.83 ± 2.6 kg/m3

## CCOS(=O)(=O)[O-].CC[n+]1cccc(C)c1 [1-ethyl-3-methylpyridinium ethylsulfate]
[2]
  mass density: 1219.61 ± 0.42 kg/m3
[3]
  refractive index: 1.50591 ± 0.00071

## CCCCCC [hexane] + Cc1ccccc1C
[1]; x1 = 1
  mass density: 655.19 ± 0.25 kg/m3

## Cc1ccc(C)cc1 [1,4-dimethylbenzene] + CCCCCC
[1]; x2 = 0
  mass density: 856.59 ± 0.24 kg/m3
[1]; x2 = 0.048
  mass density: 847.14 ± 2.4 kg/m3
[1]; x2 = 0.098
  mass density: 836.82 ± 2.5 kg/m3
[1]; x2 = 0.196
  mass density: 816.92 ± 2.5 kg/m3
[1]; x2 = 0.292
  mass density: 797.23 ± 2.5 kg/m3
[1]; x2 = 0.394
  mass density: 776.41 ± 2.5 kg/m3
[1]; x2 = 0.492
  mass density: 756.57 ± 2.4 kg/m3
[1]; x2 = 0.591
  mass density: 736.73 ± 2.4 kg/m3
[1]; x2 = 0.692
  mass density: 716.48 ± 2.4 kg/m3
[1]; x2 = 0.792
  mass density: 696.69 ± 2.4 kg/m3
[1]; x2 = 0.892
  mass density: 676.71 ± 2.4 kg/m3
[1]; x2 = 0.948
  mass density: 665.7 ± 2.4 kg/m3

## Cc1cccc(C)c1 [1,3-dimethylbenzene] + CCCCCC
[1]; x2 = 0
  mass density: 859.79 ± 0.24 kg/m3
[1]; x2 = 0.05
  mass density: 849.62 ± 2.5 kg/m3
[1]; x2 = 0.098
  mass density: 839.51 ± 2.5 kg/m3
[1]; x2 = 0.194
  mass density: 819.34 ± 2.5 kg/m3
[1]; x2 = 0.297
  mass density: 797.9 ± 2.5 kg/m3
[1]; x2 = 0.398
  mass density: 777.18 ± 2.5 kg/m3
[1]; x2 = 0.498
  mass density: 756.55 ± 2.5 kg/m3
[1]; x2 = 0.6
  mass density: 735.62 ± 2.5 kg/m3
[1]; x2 = 0.699
  mass density: 715.46 ± 2.5 kg/m3
[1]; x2 = 0.793
  mass density: 696.42 ± 2.4 kg/m3
[1]; x2 = 0.896
  mass density: 676.03 ± 2.4 kg/m3
[1]; x2 = 0.948
  mass density: 665.51 ± 2.4 kg/m3
